# According to patent publication USRE48461E1, “Modulation of androgen receptor expression” (Ionis Pharmaceuticals, Inc., priority 2012, dated 2021):
# e = 2'-O-(2-methoxyethyl) (MOE); d = 2'-deoxy (DNA)
# Key:
# Format in all cases: cell-based, human
# KLK3 mRNA = KLK3 mRNA (AR target gene) in C4-2B MR cells
# C4-2B MR cells = assay: Proliferation of MDV3100-resistant C4-2B cells (CellTiter 96); conditions: 6 days
# Experimental: ISIS 549372, ISIS 549434, ISIS 549458, and ISIS 554221 were each added to the culture media at 0.04 μM, 0.20 μM, 1.00 μM, and 5.00 μM concentration of antisense oligonucleotide. ISIS 347526 was included as a negative control. After a treatment period of 6 days, the proliferative capacity of the cancer cells was measured with using CellTiter 96® AQueous One Solution Cell Proliferation kit (Promega), following the manufacturer's instructions. Results are presented in Table 41 as percent inhibition of proliferation, relative to non-treated cells.
# total AR mRNA = assay: Total (full-length) AR mRNA in C4-2B MR cells, free uptake; conditions: free uptake, 24 hrs
# Experimental: Cells were plated at a density of 40,000 cells per well in 96-well plates and cultured in RPMI1640 medium with 10% fetal bovine serum. […] ISIS 549372, ISIS 549458, ISIS 549434, and ISIS 554221 were each added at 0.04 μM, 0.20 μM, 1.00 μM, and 5.00 μM concentrations of antisense oligonucleotide to culture media for free uptake by the cells. […] After a treatment period of 24 hrs, total AR mRNA levels were measured by quantitative real-time PCR using primer probe set RTS3559.
# KLK2 mRNA = KLK2 mRNA (AR target gene) in C4-2B MR cells
substance,measurement,setting,value
"347526 (TCTTATGTTTCCGAACCGTT; sugars from the 5' end e5 d10 e5, backbone and methylation of C not given here) [compound 347526]",Percent inhibition of KLK3 mRNA in C4-2B MR cells,KLK3 mRNA; 0.04 μM,5%
same,Percent inhibition of KLK3 mRNA in C4-2B MR cells,KLK3 mRNA; 0.20 μM,38%
same,Percent inhibition of KLK3 mRNA in C4-2B MR cells,KLK3 mRNA; 1.00 μM,42%
same,Percent inhibition of KLK3 mRNA in C4-2B MR cells,KLK3 mRNA; 5.00 μM,16%
same,Percent inhibition of C4-2B MR cell proliferation,C4-2B MR cells; 0.04 μM,11%
same,Percent inhibition of C4-2B MR cell proliferation,C4-2B MR cells; 0.20 μM,22%
same,Percent inhibition of C4-2B MR cell proliferation,C4-2B MR cells; 1.00 μM,7%
same,Percent inhibition of C4-2B MR cell proliferation,C4-2B MR cells; 5.00 μM,16%
same,Percent inhibition of full-length AR mRNA in C4-2B MR cells,total AR mRNA; 0.04 μM,28%
same,Percent inhibition of full-length AR mRNA in C4-2B MR cells,total AR mRNA; 0.20 μM,35%
same,Percent inhibition of full-length AR mRNA in C4-2B MR cells,total AR mRNA; 1.00 μM,31%
same,Percent inhibition of full-length AR mRNA in C4-2B MR cells,total AR mRNA; 5.00 μM,17%
same,Percent inhibition of KLK2 mRNA in C4-2B MR cells,KLK2 mRNA; 0.04 μM,28%
same,Percent inhibition of KLK2 mRNA in C4-2B MR cells,KLK2 mRNA; 0.20 μM,29%
same,Percent inhibition of KLK2 mRNA in C4-2B MR cells,KLK2 mRNA; 1.00 μM,23%
same,Percent inhibition of KLK2 mRNA in C4-2B MR cells,KLK2 mRNA; 5.00 μM,22%
